# “And” between values parts separate entries of the source, which are not always exact repeats. Equal values may be shown once.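 Test compounds were applied to cells in 96-well plates for 48 hours at 5 doses. GI50 marks 50% less growth. At the TGI there is no net growth.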 Where a SMILES comes first, the peptide text is derived from it. Bridges are numbered along the chain shown (N, C = ends).
# Experiments:
# Test in all cases: DTP human tumour cell line panel, 48 h
# [1] = system: 786-0 renal
# [2] = system: A498 renal
# [3] = system: A549 NSCLC
# [4] = system: ACHN renal
# [5] = system: BT-549 breast
# [6] = system: COLO 205 colon
# [7] = system: DU-145 prostate
# [8] = system: EKVX NSCLC
# [9] = system: HCC-2998 colon
# [10] = system: HCT-15 colon
# [11] = system: HOP-62 NSCLC
# [12] = system: HOP-92 NSCLC
# [13] = system: HT29 colon
# [14] = system: IGROV1 ovarian
# [15] = system: K-562 leukemia
# [16] = system: KM12 colon
# [17] = system: LOX IMVI melanoma
# [18] = system: M14 melanoma
# [19] = system: MALME-3M melanoma
# [20] = system: MCF7 breast
# [21] = system: MDA-MB-231 breast
# [22] = system: MDA-MB-435
# [23] = system: MDA-N
# [24] = system: MOLT-4 leukemia
# [25] = system: NCI-H226 lung
# [26] = system: NCI-H460 lung
# [27] = system: NCI-H522 lung
# [28] = system: NCI/ADR-RES ovarian
# [29] = system: OVCAR-3 ovarian
# [30] = system: OVCAR-4 ovarian
# [31] = system: OVCAR-5 ovarian
# [32] = system: OVCAR-8 ovarian
# [33] = system: PC-3 prostate
# [34] = system: RPMI-8226 leukemia
# [35] = system: RXF 393 renal
# [36] = system: SF-268 CNS
# [37] = system: SF-295 CNS
# [38] = system: SK-MEL-2 melanoma
# [39] = system: SK-MEL-28 melanoma
# [40] = system: SK-MEL-5 melanoma
# [41] = system: SK-OV-3 ovarian
# [42] = system: SNB-19 CNS
# [43] = system: SNB-75 CNS
# [44] = system: SW-620 colon
# [45] = system: T-47D breast
# [46] = system: TK-10 renal
# [47] = system: U251 CNS
# [48] = system: UACC-257 melanoma
# [49] = system: UACC-62 melanoma
# [50] = system: UO-31 renal
# [51] = system: CAKI-1 renal
# [52] = system: CCRF-CEM leukemia
# [53] = system: HCT-116 colon
# [54] = system: HS 578T breast
# [55] = system: NCI-H23 lung
# [56] = system: SN12C renal
# [57] = system: HL-60(TB) leukemia
# [58] = system: SF-539 CNS
# [59] = system: SR leukemia
structure (smiles),measurement,setting,value
CC(=O)OC1(C)CC(C)C(=O)C(C(O)CC2CC(=O)NC(=O)C2)C1 (stereo not given),TGI,[1],0.0669 µM
same,TGI,[2],0.266 µM and 0.0863 µM
same,TGI,[3],0.936 µM and 3.32 µM
same,TGI,[4],0.131 µM and 0.107 µM
same,GI50,[5],0.0148 µM
same,TGI,[6],0.18 µM and 0.0404 µM
same,TGI,[7],0.449 µM and 0.264 µM
same,TGI,[8],0.37 µM and 0.631 µM
same,TGI,[9],0.0409 µM
same,TGI,[10],0.176 µM
same,TGI,[11],0.0683 µM
same,TGI,[12],0.0121 µM
same,TGI,[13],0.133 µM
same,TGI,[14],0.0489 µM
same,TGI,[15],0.0322 µM
same,TGI,[16],0.164 µM and 0.327 µM
same,TGI,[17],0.296 µM and 0.103 µM
same,TGI,[18],0.172 µM and 0.0421 µM
same,TGI,[19],0.375 µM and 0.753 µM
same,TGI,[20],0.0813 µM
same,TGI,[21],0.196 µM
same,TGI,[22],0.272 µM and 0.733 µM
same,TGI,[23],0.204 µM and 0.215 µM
same,TGI,[24],0.316 µM
same,GI50,[25],0.0108 µM
same,TGI,[25],0.275 µM
same,TGI,[26],0.363 µM and 0.224 µM
same,TGI,[27],0.146 µM
same,TGI,[28],0.744 µM and 0.341 µM
same,TGI,[29],1.62 µM
same,TGI,[30],0.178 µM and 0.0277 µM
same,TGI,[31],0.293 µM and 2.4 µM
same,TGI,[32],0.965 µM and 0.406 µM
same,TGI,[33],0.0852 µM
same,TGI,[34],0.0162 µM
same,TGI,[35],0.0899 µM
same,TGI,[36],1.42 µM
same,TGI,[37],0.03 µM
same,TGI,[38],0.806 µM and 0.438 µM
same,TGI,[39],0.134 µM and 0.688 µM
same,TGI,[40],0.147 µM and 0.023 µM
same,TGI,[41],1.44 µM
same,TGI,[42],0.598 µM
same,TGI,[43],0.0119 µM
same,TGI,[44],0.129 µM
same,TGI,[45],0.583 µM
same,GI50,[46],0.0117 µM
same,TGI,[46],0.164 µM
same,TGI,[47],21.3 µM
same,TGI,[48],0.348 µM and 0.145 µM
same,TGI,[49],0.0113 µM
same,TGI,[50],0.643 µM and 0.389 µM
O=C(Cn1c2ccc(Br)cc2c2nc3ccccc3nc21)N1CCOCC1,TGI,[1],> 100 µM
same,TGI,[2],> 100 µM
same,TGI,[3],> 100 µM
same,TGI,[4],> 100 µM
same,TGI,[5],> 100 µM
same,TGI,[51],> 100 µM
same,TGI,[52],> 100 µM
same,TGI,[6],> 100 µM
same,TGI,[7],> 100 µM
same,TGI,[9],> 100 µM
same,TGI,[53],> 100 µM
same,TGI,[10],> 100 µM
same,TGI,[11],> 100 µM
same,TGI,[12],83.3 µM
same,TGI,[54],> 100 µM
same,TGI,[13],> 100 µM
same,TGI,[14],> 100 µM
same,TGI,[15],> 100 µM
same,TGI,[16],> 100 µM
same,TGI,[17],> 100 µM
same,TGI,[18],> 100 µM
same,TGI,[19],> 100 µM
same,TGI,[21],> 100 µM
same,TGI,[22],> 100 µM
same,TGI,[23],> 100 µM
same,TGI,[24],> 100 µM
same,TGI,[25],> 100 µM
same,TGI,[55],> 100 µM
same,TGI,[26],> 100 µM
same,TGI,[28],> 100 µM
same,TGI,[29],> 100 µM
same,TGI,[30],> 100 µM
same,TGI,[31],> 100 µM
same,TGI,[32],> 100 µM
same,TGI,[33],> 100 µM
same,TGI,[34],> 100 µM
same,TGI,[35],98.9 µM
same,TGI,[36],> 100 µM
same,TGI,[37],> 100 µM
same,TGI,[38],> 100 µM
same,TGI,[39],> 100 µM
same,TGI,[40],> 100 µM
same,TGI,[41],> 100 µM
same,TGI,[56],> 100 µM
same,TGI,[42],> 100 µM
same,TGI,[43],> 100 µM
same,TGI,[44],> 100 µM
same,TGI,[45],> 100 µM
same,TGI,[46],> 100 µM
same,TGI,[47],> 100 µM
same,TGI,[48],> 100 µM
same,TGI,[49],> 100 µM
same,TGI,[50],> 100 µM
CCC(C)C1NC(=O)C(CC(C)C)NC(=O)C(C(C)C)NC(=O)C2CSSCC(NC1=O)C(=O)N2 (stereo not given) (cyclo(CCVLI); disulfide 1-2; configuration not given here),TGI,[1],0.315 µM
same,TGI,[3],0.399 µM
same,TGI,[4],1.82 µM
same,TGI,[5],0.369 µM
same,TGI,[51],5.41 µM
same,TGI,[6],0.223 µM
same,TGI,[7],0.301 µM
same,TGI,[8],0.452 µM
same,TGI,[9],0.216 µM
same,TGI,[53],0.187 µM
same,TGI,[10],7.12 µM
same,TGI,[57],0.339 µM
same,TGI,[11],0.554 µM
same,TGI,[12],0.248 µM
same,TGI,[54],0.271 µM
same,TGI,[13],0.356 µM
same,TGI,[14],0.309 µM
same,TGI,[16],0.223 µM
same,TGI,[17],0.239 µM
same,TGI,[18],1.01 µM
same,TGI,[21],0.233 µM
same,TGI,[22],0.391 µM
same,TGI,[23],0.339 µM
same,TGI,[55],0.277 µM
same,TGI,[26],0.26 µM
same,TGI,[27],0.355 µM
same,TGI,[28],> 100 µM
same,TGI,[29],0.395 µM
same,TGI,[30],0.362 µM
same,TGI,[31],0.381 µM
same,TGI,[32],0.491 µM
same,TGI,[33],0.329 µM
same,TGI,[37],0.34 µM
same,TGI,[58],0.316 µM
same,TGI,[38],0.363 µM
same,TGI,[39],0.269 µM
same,TGI,[40],0.293 µM
same,TGI,[56],0.351 µM
same,TGI,[42],0.344 µM
same,TGI,[43],0.238 µM
same,TGI,[45],0.182 µM
same,TGI,[46],1.93 µM
same,TGI,[47],0.149 µM
same,TGI,[48],0.279 µM
same,TGI,[49],0.228 µM
same,TGI,[50],5.84 µM
C[n+]1ccc2/c(=C\C#N)c3ccccc3n21,TGI,[1],> 100 µM
same,TGI,[3],52.7 µM
same,TGI,[4],> 100 µM
same,TGI,[5],52.8 µM
same,TGI,[51],> 100 µM
same,TGI,[52],51.4 µM
same,TGI,[6],45.4 µM
same,TGI,[7],46.4 µM
same,TGI,[8],85.2 µM
same,TGI,[9],50.6 µM
same,TGI,[53],> 100 µM
same,TGI,[10],> 100 µM
same,TGI,[57],65.6 µM
same,TGI,[11],> 100 µM
same,TGI,[12],63.2 µM
same,TGI,[13],72.1 µM
same,TGI,[14],78.3 µM
same,TGI,[15],> 100 µM
same,TGI,[16],45.1 µM
same,TGI,[17],40.4 µM
same,TGI,[18],> 100 µM
same,TGI,[19],44.6 µM
same,TGI,[20],65 µM
same,TGI,[22],63 µM
same,TGI,[23],> 100 µM
same,TGI,[24],> 100 µM
same,TGI,[25],> 100 µM
same,TGI,[55],40.7 µM
same,TGI,[26],> 100 µM
same,TGI,[27],70.8 µM
same,TGI,[28],> 100 µM
same,TGI,[29],34.2 µM
same,TGI,[30],72.9 µM
same,TGI,[31],> 100 µM
same,TGI,[32],> 100 µM
same,TGI,[33],> 100 µM
same,TGI,[34],31.3 µM
same,TGI,[35],> 100 µM
same,TGI,[36],> 100 µM
same,TGI,[37],> 100 µM
same,TGI,[38],89.9 µM
same,TGI,[39],53.5 µM
same,TGI,[40],35.6 µM
same,TGI,[41],83 µM
same,TGI,[56],> 100 µM
same,TGI,[42],30.1 µM
same,TGI,[59],56.5 µM
same,TGI,[44],> 100 µM
same,TGI,[45],32.7 µM
same,TGI,[46],63.9 µM
same,TGI,[47],72.8 µM
same,TGI,[48],13.9 µM
same,TGI,[49],> 100 µM
same,TGI,[50],> 100 µM

# From PubChem BioAssay (NCI)
